Results as given in US20120083522A1, “MODULATION OF INFLAMMATORY RESPONSES BY FACTOR XI” (Isis Pharmaceuitcals, inc., priority 2009, published 2012).

How the values were obtained:
human Factor XI mRNA [1] = experiment: Dose-dependent inhibition in HepG2 cells, lipofectin (Example 4); type: cell-based; conditions: 16 hours
Method in brief: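 HepG2 cells at 10,000 per well were lipofectin-transfected with 9.375, 18.75, 37.5 or 75 nM antisense oligonucleotide for about 16 h. Factor XI mRNA was quantified by real-time PCR (primer probe set RTS 2966) and normalised to RIBOGREEN total RNA. Values are percent inhibition versus untreated cells.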

human Factor XI mRNA [2] = experiment: Dose-dependent inhibition in HepG2 cells, electroporation (Example 5); type: cell-based; conditions: approx. 16 h, relative to untreated control cells
Procedure: The gapmers were also transfected via electroporation and their dose dependent inhibition of human Factor XI mRNA was measured. Cells were plated at a density of 20,000 cells per well and transfected via electroporation with 625 nM, 1250 nM, 2500 nM, 5,000 nM, 10,000 nM, and 20,000 nM concentrations of antisense oligonucleotide, as specified in Table 12. After a treatment period of approximately 16 hours, RNA was isolated from the cells and human Factor XI mRNA levels were measured by quantitative real-time PCR. Human Factor XI primer probe set RTS 2966 was used to measure mRNA levels. Factor XI mRNA levels were adjusted according to total RNA content, as measured by RIBOGREEN®. Results are presented as percent inhibition of human Factor XI, relative to untreated control cells.

human Factor XI mRNA [3] = experiment: Dose-dependent inhibition in HepG2 cells, electroporation (Example 4); type: cell-based; conditions: 16 hours
Method in brief: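 HepG2 cells electroporated with 0.7, 2.2, 6.7 or 20 μM antisense gapmer and harvested after ~16 h. Factor XI mRNA quantified by qRT-PCR (primer probe set RTS 2966), normalised to total RNA (RIBOGREEN). Reported as percent inhibition versus untreated control cells.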

human Factor XI mRNA [4] = experiment: Dose-dependent inhibition in HepB3 cells, lipofectin (Example 7); type: cell-based; conditions: approx. 16 h
Procedure: Cells were plated at a density of 4,000 cells per well and transfected using lipofectin reagent with 2.3 nM, 4.7 nM, 9.4 nM, 18.75 nM, 37.5 nM, and 75 nM concentrations of antisense oligonucleotide, as specified in Table 14. After a treatment period of approximately 16 hours, RNA was isolated from the cells and human Factor XI mRNA levels were measured by quantitative real-time PCR. Human Factor XI primer probe set RTS 2966 was used to measure mRNA levels. Factor XI mRNA levels were adjusted according to total RNA content, as measured by RIBOGREEN®. Results are presented as percent inhibition of Factor XI, relative to untreated control cells.

human Factor XI mRNA [5] = experiment: Dose-dependent inhibition in cyno primary hepatocytes, electroporation (Example 6); type: cell-based, cynomolgus monkey; conditions: approx. 16 h
Procedure: Cells were plated at a density of 35,000 cells per well and transfected via electroporation with 0.74 nM, 2.2 nM, 6.7 nM, 20 nM, 60 nM, and 180 nM concentrations of antisense oligonucleotide, as specified in Table 13. After a treatment period of approximately 16 hours, RNA was isolated from the cells and human Factor XI mRNA levels were measured by quantitative real-time PCR. Human Factor XI primer probe set RTS 2966 was used to measure mRNA levels. Factor XI mRNA levels were adjusted according to total RNA content, as measured by RIBOGREEN®. Results are presented as percent inhibition of human Factor XI, relative to untreated control cells.

human Factor XI mRNA [6] = experiment: Dose-dependent inhibition in HepB3 cells, electroporation (Example 7); type: cell-based; conditions: approx. 16 h
Procedure: The gapmers were also transfected via electroporation and their dose dependent inhibition of human Factor XI mRNA was measured. Cells were plated at a density of 20,000 cells per well and transfected via electroporation with 41.15 nM, 123.457 nM, 370.37 nM, 1111.11 nM, 3333.33 nM, and 10,000 nM concentrations of antisense oligonucleotide, as specified in Table 15. After a treatment period of approximately 16 hours, RNA was isolated from the cells and human Factor XI mRNA levels were measured by quantitative real-time PCR. Human Factor XI primer probe set RTS 2966 was used to measure mRNA levels. Factor XI mRNA levels were adjusted according to total RNA content, as measured by RIBOGREEN®. Results are presented as percent inhibition of human Factor XI, relative to untreated control cells.

[7] = Tolerability in Sprague-Dawley rats: body and organ weight (Example 19); type: in vivo; conditions: 50 mg/kg s.c. twice per week for 6 weeks, change over weight at start of study
From the text: Urine samples were taken before the start of treatment.
The body weights are presented in Table 78 and are expressed as a percent change over the weights taken at the start of the study.

Substance	percent inhibition of Factor XI mRNA, relative to untreated control cells (human Factor XI mRNA [1]; 9.375 nM) [%]	percent inhibition of Factor XI mRNA, relative to untreated control cells (human Factor XI mRNA [1]; 18.75 nM) [%]	percent inhibition of Factor XI mRNA, relative to untreated control cells (human Factor XI mRNA [1]; 37.5 nM) [%]	percent inhibition of Factor XI mRNA, relative to untreated control cells (human Factor XI mRNA [1]; 75 nM) [%]	percent inhibition of human Factor XI mRNA (human Factor XI mRNA [2]; 625 nM) [%]	percent inhibition of human Factor XI mRNA (human Factor XI mRNA [2]; 1250 nM) [%]	percent inhibition of human Factor XI mRNA (human Factor XI mRNA [2]; 2500 nM) [%]	percent inhibition of human Factor XI mRNA (human Factor XI mRNA [2]; 5000 nM) [%]	percent inhibition of human Factor XI mRNA (human Factor XI mRNA [2]; 10000 nM) [%]	percent inhibition of human Factor XI mRNA (human Factor XI mRNA [2]; 20000 nM) [%]	percent inhibition of Factor XI mRNA, relative to untreated control cells (human Factor XI mRNA [3]; 0.7 μM) [%]	percent inhibition of Factor XI mRNA, relative to untreated control cells (human Factor XI mRNA [3]; 2.2 μM) [%]	percent inhibition of Factor XI mRNA, relative to untreated control cells (human Factor XI mRNA [3]; 6.7 μM) [%]	percent inhibition of Factor XI mRNA, relative to untreated control cells (human Factor XI mRNA [3]; 20 μM) [%]	percent inhibition of human Factor XI mRNA (human Factor XI mRNA [4]; 2.3 nM) [%]	percent inhibition of human Factor XI mRNA (human Factor XI mRNA [4]; 4.7 nM) [%]	percent inhibition of human Factor XI mRNA (human Factor XI mRNA [4]; 9.4 nM) [%]	percent inhibition of human Factor XI mRNA (human Factor XI mRNA [4]; 18.75 nM) [%]	percent inhibition of human Factor XI mRNA (human Factor XI mRNA [4]; 37.5 nM) [%]	percent inhibition of human Factor XI mRNA (human Factor XI mRNA [4]; 75 nM) [%]	further results
416825 (antisense GCCCTTCATGTCTAGGTCCA; 5-10-5 gapmer, wing sugar chemistry not given here, further chemistry not given here) [compound 416825]	23	52	73	92	69	84	91	94	96	97	27	74	92	98	0	15	34	36	53	59	percent inhibition of human Factor XI mRNA (human Factor XI mRNA [5]; 0.74 nM): 5%; percent inhibition of human Factor XI mRNA (human Factor XI mRNA [5]; 2.2 nM): 22%; percent inhibition of human Factor XI mRNA (human Factor XI mRNA [5]; 6.7 nM): 51%; percent inhibition of human Factor XI mRNA (human Factor XI mRNA [5]; 20 nM): 61%; percent inhibition of human Factor XI mRNA (human Factor XI mRNA [5]; 60 nM): 77%; percent inhibition of human Factor XI mRNA (human Factor XI mRNA [5]; 180 nM): 84%; percent inhibition of human Factor XI mRNA (human Factor XI mRNA [6]; 41.15 nM): 32%; percent inhibition of human Factor XI mRNA (human Factor XI mRNA [6]; 123.457 nM): 40%; percent inhibition of human Factor XI mRNA (human Factor XI mRNA [6]; 370.37 nM): 48%; percent inhibition of human Factor XI mRNA (human Factor XI mRNA [6]; 1111.11 nM): 75%; percent inhibition of human Factor XI mRNA (human Factor XI mRNA [6]; 3333.33 nM): 90%; percent inhibition of human Factor XI mRNA (human Factor XI mRNA [6]; 10000 nM): 92%; Percent change in Body weight [7]: −18%
416838 (antisense GCAACCGGGATGATGAGTGC; 5-10-5 gapmer, wing sugar chemistry not given here, further chemistry not given here) [compound 416838]	31	51	64	86	66	79	87	90	93	96	5	30	55	83	23	34	43	59	71	56	percent inhibition of human Factor XI mRNA (human Factor XI mRNA [5]; 0.74 nM): 0%; percent inhibition of human Factor XI mRNA (human Factor XI mRNA [5]; 2.2 nM): 0%; percent inhibition of human Factor XI mRNA (human Factor XI mRNA [5]; 6.7 nM): 21%; percent inhibition of human Factor XI mRNA (human Factor XI mRNA [5]; 20 nM): 34%; percent inhibition of human Factor XI mRNA (human Factor XI mRNA [5]; 60 nM): 48%; percent inhibition of human Factor XI mRNA (human Factor XI mRNA [5]; 180 nM): 62%; percent inhibition of human Factor XI mRNA (human Factor XI mRNA [6]; 41.15 nM): 12%; percent inhibition of human Factor XI mRNA (human Factor XI mRNA [6]; 123.457 nM): 9%; percent inhibition of human Factor XI mRNA (human Factor XI mRNA [6]; 370.37 nM): 28%; percent inhibition of human Factor XI mRNA (human Factor XI mRNA [6]; 1111.11 nM): 40%; percent inhibition of human Factor XI mRNA (human Factor XI mRNA [6]; 3333.33 nM): 77%; percent inhibition of human Factor XI mRNA (human Factor XI mRNA [6]; 10000 nM): 88%; Percent change in Body weight [7]: −23%
416850 (antisense TGCACAGTTTCTGGCAGGCC; 5-10-5 gapmer, wing sugar chemistry not given here, further chemistry not given here) [compound 416850]	4	30	67	84	69	80	87	90	93	96	14	25	81	91	22	32	43	56	75	60	percent inhibition of human Factor XI mRNA (human Factor XI mRNA [5]; 0.74 nM): 2%; percent inhibition of human Factor XI mRNA (human Factor XI mRNA [5]; 2.2 nM): 20%; percent inhibition of human Factor XI mRNA (human Factor XI mRNA [5]; 6.7 nM): 24%; percent inhibition of human Factor XI mRNA (human Factor XI mRNA [5]; 20 nM): 65%; percent inhibition of human Factor XI mRNA (human Factor XI mRNA [5]; 60 nM): 69%; percent inhibition of human Factor XI mRNA (human Factor XI mRNA [5]; 180 nM): 67%; percent inhibition of human Factor XI mRNA (human Factor XI mRNA [6]; 41.15 nM): 26%; percent inhibition of human Factor XI mRNA (human Factor XI mRNA [6]; 123.457 nM): 38%; percent inhibition of human Factor XI mRNA (human Factor XI mRNA [6]; 370.37 nM): 51%; percent inhibition of human Factor XI mRNA (human Factor XI mRNA [6]; 1111.11 nM): 73%; percent inhibition of human Factor XI mRNA (human Factor XI mRNA [6]; 3333.33 nM): 90%; percent inhibition of human Factor XI mRNA (human Factor XI mRNA [6]; 10000 nM): 95%; Percent change in Body weight [7]: −33%
